Measurements reported in patent publication US7795444B2, “Human protein tyrosine phosphatase inhibitors and methods of use” (Warner Chilcott Company, priority 2006, dated 2010).

What was measured:
HPTPβ = HPTPβ (Homo sapiens, UniProt P23467); assay: HPTPβ inhibition, IC50 (Table A); assay type: biochemical
PTP1B = biological target: T1, PTP1B (Homo sapiens, UniProt P18031); assay: PTP1B inhibition, IC50 (Table A); assay type: biochemical
T1 sequence (P18031 1-435): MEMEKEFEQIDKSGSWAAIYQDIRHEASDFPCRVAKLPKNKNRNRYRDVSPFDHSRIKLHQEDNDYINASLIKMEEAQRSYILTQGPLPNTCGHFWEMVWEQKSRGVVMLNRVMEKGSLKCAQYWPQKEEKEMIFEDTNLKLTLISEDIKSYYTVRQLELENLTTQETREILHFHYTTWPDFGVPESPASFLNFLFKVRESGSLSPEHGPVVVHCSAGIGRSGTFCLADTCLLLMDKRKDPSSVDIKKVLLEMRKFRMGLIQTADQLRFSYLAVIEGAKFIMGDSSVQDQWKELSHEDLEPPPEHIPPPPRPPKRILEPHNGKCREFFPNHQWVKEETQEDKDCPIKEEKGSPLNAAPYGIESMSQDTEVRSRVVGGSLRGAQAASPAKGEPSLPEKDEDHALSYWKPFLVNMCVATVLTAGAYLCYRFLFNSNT

Sequence of HPTPβ (P23467 23-1997): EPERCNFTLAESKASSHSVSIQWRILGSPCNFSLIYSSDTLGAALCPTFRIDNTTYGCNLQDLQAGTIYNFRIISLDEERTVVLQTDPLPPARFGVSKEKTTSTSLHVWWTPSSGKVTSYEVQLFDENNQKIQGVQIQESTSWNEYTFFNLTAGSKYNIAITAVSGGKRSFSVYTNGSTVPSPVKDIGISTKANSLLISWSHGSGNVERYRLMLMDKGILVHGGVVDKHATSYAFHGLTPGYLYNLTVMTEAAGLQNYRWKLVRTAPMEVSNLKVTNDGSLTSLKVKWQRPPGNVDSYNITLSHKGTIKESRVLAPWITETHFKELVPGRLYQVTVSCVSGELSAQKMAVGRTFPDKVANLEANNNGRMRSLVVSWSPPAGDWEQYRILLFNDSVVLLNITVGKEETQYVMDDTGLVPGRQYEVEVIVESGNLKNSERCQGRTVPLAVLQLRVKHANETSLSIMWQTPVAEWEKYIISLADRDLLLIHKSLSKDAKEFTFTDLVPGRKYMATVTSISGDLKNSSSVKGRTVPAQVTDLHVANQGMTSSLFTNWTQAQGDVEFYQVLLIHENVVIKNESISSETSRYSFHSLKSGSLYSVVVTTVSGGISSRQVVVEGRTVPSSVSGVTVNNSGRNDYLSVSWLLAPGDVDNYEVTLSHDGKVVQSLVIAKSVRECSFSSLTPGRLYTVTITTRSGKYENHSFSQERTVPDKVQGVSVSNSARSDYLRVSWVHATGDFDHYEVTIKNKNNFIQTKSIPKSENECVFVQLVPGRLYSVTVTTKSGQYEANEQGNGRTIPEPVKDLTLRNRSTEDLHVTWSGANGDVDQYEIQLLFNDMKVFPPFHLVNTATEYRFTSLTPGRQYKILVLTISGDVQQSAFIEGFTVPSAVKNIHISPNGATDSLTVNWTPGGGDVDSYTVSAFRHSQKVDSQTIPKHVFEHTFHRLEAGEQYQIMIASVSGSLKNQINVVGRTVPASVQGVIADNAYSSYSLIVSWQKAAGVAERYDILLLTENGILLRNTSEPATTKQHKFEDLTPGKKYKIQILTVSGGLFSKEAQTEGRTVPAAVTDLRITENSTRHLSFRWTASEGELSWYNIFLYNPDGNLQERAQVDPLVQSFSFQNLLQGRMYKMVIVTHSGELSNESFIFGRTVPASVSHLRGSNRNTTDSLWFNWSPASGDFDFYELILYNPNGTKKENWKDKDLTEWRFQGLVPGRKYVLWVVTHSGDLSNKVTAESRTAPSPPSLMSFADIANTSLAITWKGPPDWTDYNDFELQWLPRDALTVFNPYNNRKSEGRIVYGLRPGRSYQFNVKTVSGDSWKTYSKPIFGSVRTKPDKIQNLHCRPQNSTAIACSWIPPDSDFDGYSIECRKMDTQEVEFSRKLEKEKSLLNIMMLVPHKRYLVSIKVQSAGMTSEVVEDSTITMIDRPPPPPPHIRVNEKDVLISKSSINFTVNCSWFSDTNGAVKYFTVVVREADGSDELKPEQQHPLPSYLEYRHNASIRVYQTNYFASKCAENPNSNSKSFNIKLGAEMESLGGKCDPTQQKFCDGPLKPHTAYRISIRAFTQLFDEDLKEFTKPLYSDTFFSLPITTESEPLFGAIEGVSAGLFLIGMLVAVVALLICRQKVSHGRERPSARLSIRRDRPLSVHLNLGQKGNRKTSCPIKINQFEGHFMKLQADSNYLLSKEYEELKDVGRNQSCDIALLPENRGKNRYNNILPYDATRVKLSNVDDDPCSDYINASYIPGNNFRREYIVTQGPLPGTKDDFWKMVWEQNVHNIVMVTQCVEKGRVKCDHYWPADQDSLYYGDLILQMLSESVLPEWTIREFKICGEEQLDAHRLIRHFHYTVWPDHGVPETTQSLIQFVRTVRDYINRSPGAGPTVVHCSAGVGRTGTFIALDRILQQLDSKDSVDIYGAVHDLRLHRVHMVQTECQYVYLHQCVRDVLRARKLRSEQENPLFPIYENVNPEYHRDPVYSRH

IC50 (HPTPβ) [nM] | IC50 (PTP1B) [nM] | Molecule
12 | 5360 | CCc1csc([C@H](Cc2ccc(NS(=O)(=O)O)cc2)NC(=O)Cc2ccccc2F)n1 [(S)-4-(2-(4-Ethylthiazol-2-yl)-2-(2-(2-fluorophenyl)acetamido)ethyl)phenyl-sulfamic acid]
56 | 22800 | CCc1csc([C@H](Cc2ccc(NS(=O)(=O)O)cc2)NC(=O)Cc2ccccc2Cl)n1 [(S)-4-(2-(2-(2-Chlorophenyl)acetamido)-2-(4-ethylthiazol-2-yl)ethyl)phenyl-sulfamic acid]
28 | 5360 | CCc1csc([C@H](Cc2ccc(NS(=O)(=O)O)cc2)NC(=O)Cc2cccc(F)c2F)n1 [(S)-4-(2-(2-(2,3-Difluorophenyl)acetamido)-2-(4-ethylthiazol-2-yl)ethyl)phenyl-sulfamic acid]
28 | 15500 | CCc1csc([C@H](Cc2ccc(NS(=O)(=O)O)cc2)NC(=O)Cc2ccc(OC)c(OC)c2)n1 [(S)-4-(2-(2-(3,4-Dimethoxyphenyl)acetamido)-2-(4-ethylthiazol-2-yl)ethyl)-phenylsulfamic acid]
6 | 16000 | CCc1csc([C@H](Cc2ccc(NS(=O)(=O)O)cc2)NC(=O)CCc2ccc(OC)cc2)n1 [(S)-4-(2-(4-Ethylthiazol-2-yl)-2-(3-(4-methoxyphenyl)propanamido)ethyl)phenyl-sulfamic acid]
8 | 4050 | CCc1csc([C@H](Cc2ccc(NS(=O)(=O)O)cc2)NC(=O)Cc2cccc(OC)c2)n1 [(S)-4-(2-(4-Ethylthiazol-2-yl)-2-(2-(3-methoxyphenyl)acetamido)ethyl)phenyl-sulfamic acid]
33 | 13600 | CCc1csc([C@H](Cc2ccc(NS(=O)(=O)O)cc2)NC(=O)Cc2cccc(Cl)c2)n1 [(S)-4-(2-(2-(3-Chlorophenyl)acetamido)-2-(4-ethylthiazol-2-yl)ethyl)phenyl-sulfamic acid]
50 | 22900 | CCc1csc([C@H](Cc2ccc(NS(=O)(=O)O)cc2)NC(=O)Cc2ccccc2)n1 [(S)-{4-[2-(4-Ethylthiazol-2-yl)-2-(phenylacetylamido)ethyl]-phenyl}sulfamic acid]
2 | 254 | CCc1csc([C@H](Cc2ccc(NS(=O)(=O)O)cc2)NC(=O)Cn2cc(C)c(=O)[nH]c2=O)n1 [(S)-4-{2-(4-Ethylthiazol-2-yl)-2-[2-(5-methyl-2,4-dioxo-3,4-dihydropyrimidin-1(2H)-yl)acetamido]ethyl}phenylsulfamic acid]
42 | 19000 | CCc1csc([C@H](Cc2ccc(NS(=O)(=O)O)cc2)NC(=O)c2ccc3c(c2)OCO3)n1 [(S)-4-[2-(Benzo[d][1,3]dioxole-5-carboxamido)-2-(4-ethylthiazol-2-yl)ethyl]phenylsulfamic acid]
0.3 | 2850 | CCc1csc([C@H](Cc2ccc(NS(=O)(=O)O)cc2)NC(=O)Cc2cccc(F)c2)n1 [(S)-4-(2-(4-Ethylthiazol-2-yl)-2-(2-(3-fluorophenyl)acetamido)ethyl)phenyl-sulfamic acid]
10 | 20600 | CCc1csc([C@H](Cc2ccc(NS(=O)(=O)O)cc2)NC(=O)CCc2cccc(OC)c2)n1 [(S)-4-(2-(4-Ethylthiazol-2-yl)-2-(3-(3-methoxyphenyl)propanamido)ethyl)phenyl-sulfamic acid]
2 | 10400 | CCc1csc([C@H](Cc2ccc(NS(=O)(=O)O)cc2)NC(=O)CCc2ccccc2)n1 [(S)-4-(2-(4-Ethylthiazol-2-yl)-2-(3-phenylpropanamido)ethyl)phenylsulfamic acid]
0.2 | 15300 | CCc1csc([C@H](Cc2ccc(NS(=O)(=O)O)cc2)NC(=O)CCc2cccc(Cl)c2)n1 [(S)-4-(2-(3-(3-Chlorophenyl)propanamido)-2-(4-ethylthiazol-2-yl)ethyl)phenyl-sulfamic acid]
3 | 16900 | CCc1csc([C@H](Cc2ccc(NS(=O)(=O)O)cc2)NC(=O)CCc2ccccc2OC)n1 [(S)-4-(2-(4-Ethylthiazol-2-yl)-2-(3-(2-methoxyphenyl)propanamido)ethyl)phenyl-sulfamic acid]
75 | 23900 | CCc1csc([C@H](Cc2ccc(NS(=O)(=O)O)cc2)NC(=O)Cc2ccc(F)c(F)c2)n1 [(S)-4-(2-(2-(3,4-Difluorophenyl)acetamido)-2-(4-ethylthiazol-2-yl)ethyl)phenyl-sulfamic acid]
37 | 25400 | CCc1csc([C@H](Cc2ccc(NS(=O)(=O)O)cc2)NC(=O)Cc2cccc(OC)c2OC)n1 [(S)-4-(2-(2-(2,3-Dimethoxyphenyl)acetamido)-2-(4-ethylthiazol-2-yl)ethyl)-phenylsulfamic acid]
40 | 6570 | CCc1csc([C@H](Cc2ccc(NS(=O)(=O)O)cc2)NC(=O)Cc2cccc(O)c2)n1 [(S)-4-(2-(4-Ethylthiazol-2-yl)-2-(2-(3-hydroxyphenyl)acetamido)ethyl)phenyl-sulfamic acid]
14 | 11700 | (S)-4-(2-(4-Ethylthiazol-2-yl)-2-(2-(2-methoxyphenyl)acetamido)ethyl)phenyl-sulfamic acid
2 | 530 | CCc1csc([C@H](Cc2ccc(NS(=O)(=O)O)cc2)NC(=O)CN2CCN(CC)C(=O)C2=O)n1 [(S)-4-{2-[2-(4-Ethyl-2,3-dioxopiperazin-1-yl)acetamido]-2-(4-ethylthiazol-2-yl)ethyl}phenylsulfamic acid]
